Results reported in patent US4330529A, “Antibacterial composition” (Fujisawa Pharmaceutical Co., Ltd., priority 1979, dated 1982).
Like-named read-outs stand apart in the source and are kept apart here.

Tests used:
[1] = test system: Pseudomonas aeruginosa No.5; assay: MIC and FIC, Nutrient agar, multiple inoculator (Tests 4, 5); assay type: cell-based; conditions: Pseudomonas aeruginosa; P. aeruginosa No.5; 10^8 cells/ml, 20 h; read-out: MIC
Description: (§1) After the incubation was carried out at 37° C. for 20 hours, MIC values were determined.

Proteus rettgeri 1434-3 = assay: MIC and FIC, Nutrient agar (Test 3); assay type: cell-based; conditions: Providencia rettgeri, 14343; P. rettgeri 1434-3; 20 h
Description: as §1
(§2) FIC values and FIC Index were calculated in substantially the same manner as described in Test 1.

Escherichia coli No.14 = assay: MIC and FIC, Nutrient agar, multiple inoculator (Test 4); assay type: cell-based; conditions: E. coli No.14, 10^8 cells/ml, 20 h
Description: as §1

Klebsiella pneumoniae 8 = assay: Isobologram, growth in Nutrient broth in various combination ratios (Test 8); assay type: cell-based; set-up: key: +: the test microorganism grew; -: the test microorganism did not grow; conditions: gentamicin sulfate 0
Description: After the incubation was carried out at 37° C. for 18 hours, the growth of the test organism was observed.

[2] = test system: Shigella flexneri Ia EW-8; assay: MIC and FIC, Nutrient agar (Test 2); assay type: cell-based; conditions: IAEW8, S. flexneri Ia EW-8, 20 h
Description: as §1

[3] = test system: Enterobacter cloacae 1401-4; assay: MIC and FIC, Nutrient agar (Tests 2, 3); assay type: cell-based; conditions: E. cloacae 1401-4
[4] = test system: Pseudomonas aeruginosa 1101-76; assay: MIC and FIC, Nutrient agar (Test 3); assay type: cell-based; conditions: Pseudomonas aeruginosa, 110176, 20 h
Serratia marcescens 27 = assay: MIC and FIC, Nutrient agar (Test 7); assay type: cell-based; conditions: S. marcescens 27, 18 h
Description: as §2

Staphylococcus aureus 2 = assay: MIC and FIC, Nutrient agar (Test 7); assay type: cell-based; conditions: S. aureus 2, 18 h
Description: as §2

[5] = test system: Staphylococcus epidermidis 1601-1; assay: MIC and FIC, Nutrient agar (Tests 2, 3); assay type: cell-based; conditions: 16011, S. epidermidis 1601-1, 20 h
Description: as §1

Proteus vulgaris 22 = assay: MIC and FIC, Nutrient agar (Test 9); assay type: cell-based; conditions: P. vulgaris 22, 18 h
Description: as §2

[6] = test system: Pseudomonas aeruginosa No.7; assay: MIC and FIC, Nutrient agar, multiple inoculator (Test 4); assay type: cell-based; conditions: P. aeruginosa No.7, 10^8 cells/ml, 20 h
Description: as §1, §2

[7] = test system: Alcaligenes faecalis 1311-1; assay: MIC and FIC, Nutrient agar (Test 2); assay type: cell-based; conditions: 13111, A. faecalis 1311-1, 20 h
Description: as §1, §2

Enterobacter cloacae 18 = assay: MIC and FIC, Nutrient agar (Tests 7, 9); assay type: cell-based; conditions: E. cloacae 18, 18 h
Description: as §2

Serratia marcescens 9 = assay: MIC and FIC, Nutrient agar (Test 6); assay type: cell-based; conditions: Serratia marcescens; S. marcescens 9; 18 h; read-out: MIC
Description: as §2

[8] = test system: Pseudomonas aeruginosa No.18; assay: MIC and FIC, Nutrient agar, multiple inoculator (Test 5); assay type: cell-based; conditions: Pseudomonas aeruginosa; P. aeruginosa No.18; 10^8 cells/ml, 20 h; read-out: MIC
Description: as §1, §2

[9] = test system: Pseudomonas aeruginosa No.11; assay: as above; assay type: cell-based; conditions: Pseudomonas aeruginosa; P. aeruginosa No.11; 10^8 cells/ml, 20 h; read-out: MIC
Description: as §1, §2

Proteus vulgaris 5 = assay: MIC and FIC, Nutrient agar (Test 6); assay type: cell-based; conditions: Proteus vulgaris; P. vulgaris 5; 18 h; read-out: MIC
Description: as §2

Citrobacter freundii 35 = assay: MIC and FIC, Nutrient agar (Tests 6, 7, 9); assay type: cell-based
Proteus mirabilis 48 = assay: MIC and FIC, Nutrient agar (Test 7); assay type: cell-based; conditions: P. mirabilis 48, 18 h
Description: as §2

[10] = test system: Salmonella enteritidis 1891; assay: MIC and FIC, Nutrient agar (Test 2); assay type: cell-based; conditions: Salmonella enterica; S. enteritidis 1891; 20 h
Description: as §1

Proteus vulgaris 7 = assay: MIC and FIC, Nutrient agar (Tests 7, 9); assay type: cell-based; conditions: P. vulgaris 7
Proteus morganii 1433-2 = assay: MIC and FIC, Nutrient agar (Tests 2, 3); assay type: cell-based; conditions: Morganella morganii, 14332; P. morganii 1433-2; 20 h
Description: as §1

[11] = test system: Enterobacter aerogenes 1402-10; assay: MIC and FIC, Nutrient agar (Tests 2, 3); assay type: cell-based; conditions: Klebsiella aerogenes, 140210, 20 h
[12] = test system: Salmonella typhimurium 1406; assay: MIC and FIC, Nutrient agar (Tests 2, 3); assay type: cell-based; conditions: Salmonella enterica, TYPHIMURIUM, 20 h
Escherichia coli 116 = assay: MIC and FIC, Nutrient agar (Test 7); assay type: cell-based; conditions: E. coli 116, 18 h
Description: as §2

[13] = test system: Pseudomonas aeruginosa No.15; assay: MIC and FIC, Nutrient agar, multiple inoculator (Test 4); assay type: cell-based; conditions: P. aeruginosa No.15, 10^8 cells/ml, 20 h
Description: as §1, §2

Citrobacter freundii 63 = assay: MIC and FIC, Nutrient agar (Test 9); assay type: cell-based; conditions: C. freundii 63, 18 h
Description: as §2

Proteus mirabilis 5 = assay: MIC and FIC, Nutrient agar (Test 7); assay type: cell-based; conditions: P. mirabilis 5, 18 h
Description: as §2

Escherichia coli 82 = assay: MIC and FIC, Nutrient agar (Test 7); assay type: cell-based; conditions: E. coli 82, 18 h
Description: as §2

[14] = test system: Pseudomonas aeruginosa No.13; assay: MIC and FIC, Nutrient agar, multiple inoculator (Test 5); assay type: cell-based; conditions: Pseudomonas aeruginosa; P. aeruginosa No.13; 10^8 cells/ml, 20 h; read-out: MIC
Description: as §1, §2

Escherichia coli 99 = assay: MIC and FIC, Nutrient agar (Test 6); conditions: Escherichia coli, 99, 18 h
Description: as §2

[15] = test system: Pseudomonas aeruginosa No.12; assay: MIC and FIC, Nutrient agar, multiple inoculator (Test 5); assay type: cell-based; conditions: Pseudomonas aeruginosa; P. aeruginosa No.12; 10^8 cells/ml, 20 h; read-out: MIC
Description: as §1, §2

[16] = test system: Escherichia coli 1341-18R^+; assay: MIC and FIC, Nutrient agar (Test 3); assay type: cell-based; conditions: 20 h
Staphylococcus aureus 1 = assay: MIC and FIC, Nutrient agar (Test 7); assay type: cell-based; conditions: S. aureus 1, 18 h
Description: as §2

Enterobacter aerogenes 7 = assay: MIC and FIC, Nutrient agar (Tests 6, 7, 9); assay type: cell-based; conditions: Klebsiella aerogenes; E. aerogenes 7; 18 h; read-out: MIC
Description: as §2

## O=CN(O)CCCP(=O)(O)O [A (Table 2)]
[1]
  MIC: 800 µg/mL
Proteus rettgeri 1434-3
  MIC: 1.56 µg/mL
Escherichia coli No.14
  MIC: 25 µg/mL
Klebsiella pneumoniae 8; phosphonic acid salt 0.78 mcg/ml
  growth of the test organism: +
Klebsiella pneumoniae 8; phosphonic acid salt 1.56 mcg/ml
  growth of the test organism: +
Klebsiella pneumoniae 8; phosphonic acid salt 3.13 mcg/ml
  growth of the test organism: +
Klebsiella pneumoniae 8; phosphonic acid salt 6.25 mcg/ml
  growth of the test organism: +
Klebsiella pneumoniae 8; phosphonic acid salt 12.5 mcg/ml
  growth of the test organism: +
Klebsiella pneumoniae 8; phosphonic acid salt 25 mcg/ml
  growth of the test organism: -
[2]
  MIC: 1.56 µg/mL
[3]; 20 h, listed as A (Table 3)
  MIC: 3.16 µg/mL
[3]; 20 h, listed as A (Table 4)
  MIC: 3.13 µg/mL
[3]; Enterobacter cloacae, 14014, 20 h
  MIC: 3.13 µg/mL
[4]
  MIC: 1.56 µg/mL
Serratia marcescens 27
  MIC: 400 µg/mL
Staphylococcus aureus 2
  MIC: 200 µg/mL
[5]
  MIC: ≥ 400 µg/mL
Proteus vulgaris 22
  MIC: 6.25 µg/mL
[6]
  MIC: 200 µg/mL
[7]
  MIC: ≥ 400 µg/mL
Enterobacter cloacae 18; listed as A (Table 14)
  MIC: 100 µg/mL
Enterobacter cloacae 18; Enterobacter cloacae, read-out: MIC
  MIC: 200 µg/mL
Serratia marcescens 9
  MIC: 200 µg/mL
[8]
  MIC: > 800 µg/mL
[9]
  MIC: > 800 µg/mL
Proteus vulgaris 5
  MIC: 25 µg/mL
Citrobacter freundii 35; C. freundii 35, 18 h, listed as A (Table 9)
  MIC: 100 µg/mL
Citrobacter freundii 35; C. freundii 35, 18 h, listed as A (Table 10)
  MIC: 100 µg/mL
Citrobacter freundii 35; Citrobacter freundii, 35, 18 h
  MIC: 50 µg/mL
Citrobacter freundii 35; Citrobacter freundii, 35, 18 h, C. freundii 35, 18 h
  MIC: 100 µg/mL
Proteus mirabilis 48
  MIC: 25 µg/mL
[10]
  MIC: 0.78 µg/mL
Proteus vulgaris 7; 18 h, listed as A (Table 15)
  MIC: 50 µg/mL
Proteus vulgaris 7; Proteus vulgaris, 7, 18 h
  MIC: 25 µg/mL
Proteus morganii 1433-2
  MIC: ≥ 400 µg/mL
[11]
  MIC: 6.25 µg/mL
[12]
  MIC: 6.25 µg/mL
Escherichia coli 116
  MIC: 200 µg/mL
[13]
  MIC: > 800 µg/mL
Citrobacter freundii 63
  MIC: 50 µg/mL
Proteus mirabilis 5
  MIC: 25 µg/mL
Escherichia coli 82
  MIC: 100 µg/mL
[14]
  MIC: 800 µg/mL
Escherichia coli 99
  MIC: 25 µg/mL
[15]
  MIC: 800 µg/mL
[16]
  MIC: 6.25 µg/mL
Staphylococcus aureus 1
  MIC: 400 µg/mL
Enterobacter aerogenes 7
  MIC: 100 µg/mL
